Data from the NIST ThermoML archive (doi:10.1016/j.jct.2015.07.012).
Numbers after ± are expanded uncertainties.

Columns and labels:
[1] = 101.33 kPa, Liquid; for speed of sound: Sing-around technique in a fixed-path interferometer; for mass density: Vibrating tube method
[2] = refractive index (Na D-line) (dimensionless); details: 303.15 K; 101.33 kPa; Liquid; Standard Abbe refractometry
[3] = wn = mass fraction of the nth substance listed; details: 298.15 K, 100 kPa, Liquid; for speed of sound: Frequency=3 MHz, Sing-around technique in a fixed-path interferometer; for mass density: Vibrating tube method

SMILES	speed of sound ([1]; 293.15 K)	mass density ([1]; 293.15 K)	speed of sound ([1]; 298.15 K)	mass density ([1]; 298.15 K)	speed of sound ([1]; 303.15 K)	mass density ([1]; 303.15 K)	speed of sound ([1]; 308.15 K)	mass density ([1]; 308.15 K)	speed of sound ([1]; 313.15 K)	mass density ([1]; 313.15 K)	speed of sound ([1]; 318.15 K)	mass density ([1]; 318.15 K)	speed of sound ([1]; 323.15 K)	mass density ([1]; 323.15 K)	speed of sound ([1]; 328.15 K)	mass density ([1]; 328.15 K)	speed of sound ([1]; 333.15 K)	mass density ([1]; 333.15 K)	speed of sound ([1]; 338.15 K)	mass density ([1]; 338.15 K)	other results
CCCCCCC(=O)[O-].C[NH2+]C1CCCCC1 [N-methylcyclohexylammonium heptanoate]	1478.3 ± 8.6 m/s	945.8 ± 1.9 kg/m3	1458.5 ± 8.6 m/s	942.18 ± 1.8 kg/m3	1440.2 ± 8.6 m/s	938.51 ± 1.8 kg/m3	1422.2 ± 8.6 m/s	934.81 ± 1.8 kg/m3	1404.5 ± 8.6 m/s	931.05 ± 1.8 kg/m3	1385.1 ± 8.6 m/s	927.26 ± 1.8 kg/m3	1368.6 ± 8.6 m/s	923.44 ± 1.8 kg/m3	1351.4 ± 8.6 m/s	919.59 ± 1.8 kg/m3	1334.1 ± 8.6 m/s	915.71 ± 1.8 kg/m3	1316.1 ± 8.6 m/s	911.8 ± 1.8 kg/m3	speed of sound ([1]; 343.15 K): 1299.1 ± 8.6 m/s; mass density ([1]; 343.15 K): 907.85 ± 1.8 kg/m3; refractive index [2]: 1.4636 ± 0.0012
CCCCCC(=O)[O-].C[NH2+]C1CCCCC1 [N-methylcyclohexylammonium hexanoate]	1484 ± 8.6 m/s	955.14 ± 1.9 kg/m3	1464.9 ± 8.6 m/s	951.65 ± 1.9 kg/m3	1446.4 ± 8.6 m/s	948.13 ± 1.9 kg/m3	1428.2 ± 8.6 m/s	944.56 ± 1.9 kg/m3	1410.3 ± 8.6 m/s	940.96 ± 1.8 kg/m3	1392.6 ± 8.6 m/s	937.32 ± 1.8 kg/m3	1375 ± 8.6 m/s	933.66 ± 1.8 kg/m3	1357.5 ± 8.6 m/s	929.96 ± 1.8 kg/m3	1340 ± 8.6 m/s	926.23 ± 1.8 kg/m3	1322.6 ± 8.6 m/s	922.46 ± 1.8 kg/m3	speed of sound ([1]; 343.15 K): 1305.2 ± 8.6 m/s; mass density ([1]; 343.15 K): 918.66 ± 1.8 kg/m3; refractive index [2]: 1.4631 ± 0.0012
CCCCCCCC(=O)[O-].C[NH2+]C1CCCCC1 [N-methylcyclohexylammonium octanoate]	1471.6 ± 8.6 m/s	938.59 ± 1.8 kg/m3	1453.1 ± 8.6 m/s	935.17 ± 1.8 kg/m3	1435 ± 8.6 m/s	931.73 ± 1.8 kg/m3	1417.2 ± 8.6 m/s	928.25 ± 1.8 kg/m3	1399.5 ± 8.6 m/s	924.74 ± 1.8 kg/m3	1381 ± 8.6 m/s	921.21 ± 1.8 kg/m3	1363.7 ± 8.6 m/s	917.65 ± 1.8 kg/m3	1346.5 ± 8.6 m/s	914.07 ± 1.8 kg/m3	1329.4 ± 8.6 m/s	910.46 ± 1.8 kg/m3	1312.4 ± 8.6 m/s	906.82 ± 1.8 kg/m3	speed of sound ([1]; 343.15 K): 1295.4 ± 8.6 m/s; mass density ([1]; 343.15 K): 903.15 ± 1.8 kg/m3; refractive index [2]: 1.464 ± 0.0012
CCCCCCCC(=O)[O-].C[NH2+]C1CCCCC1 [N-methylcyclohexylammonium octanoate] + O	–	–	–	–	–	–	–	–	–	–	–	–	–	–	–	–	–	–	–	–	speed of sound ([3]; w2 = 0.002193): 1453.1 ± 8.6 m/s; speed of sound ([3]; w2 = 0.004032): 1457.6 ± 8.6 m/s; speed of sound ([3]; w2 = 0.005228): 1459.7 ± 8.6 m/s; speed of sound ([3]; w2 = 0.007628): 1462.3 ± 8.6 m/s; speed of sound ([3]; w2 = 0.009495): 1463.2 ± 8.6 m/s; mass density ([3]; w2 = 0.002193): 935.17 ± 1.8 kg/m3; mass density ([3]; w2 = 0.004032): 935.76 ± 1.8 kg/m3; mass density ([3]; w2 = 0.005228): 936.14 ± 1.8 kg/m3; mass density ([3]; w2 = 0.007628): 937.01 ± 1.8 kg/m3; mass density ([3]; w2 = 0.009495): 937.53 ± 1.8 kg/m3
CCCCC(=O)[O-].C[NH2+]C1CCCCC1 [N-methylcyclohexylammonium pentanoate]	1495.3 ± 8.6 m/s	965.76 ± 1.9 kg/m3	1475.7 ± 8.6 m/s	962.21 ± 1.9 kg/m3	1456.7 ± 8.6 m/s	958.63 ± 1.9 kg/m3	1438.2 ± 8.6 m/s	955.01 ± 1.9 kg/m3	1420.1 ± 8.6 m/s	951.34 ± 1.9 kg/m3	1402.1 ± 8.6 m/s	947.63 ± 1.9 kg/m3	1384.2 ± 8.6 m/s	943.88 ± 1.9 kg/m3	1366.5 ± 8.6 m/s	940.1 ± 1.8 kg/m3	1348.8 ± 8.6 m/s	936.29 ± 1.8 kg/m3	1331.1 ± 8.6 m/s	932.44 ± 1.8 kg/m3	speed of sound ([1]; 343.15 K): 1313.5 ± 8.6 m/s; mass density ([1]; 343.15 K): 928.54 ± 1.8 kg/m3; refractive index [2]: 1.4627 ± 0.0012
